Test results: PubChem BioAssay (NCI)
“And” between values parts separate entries of the source, which are not always exact repeats. Equal entries are not always repeated.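 Exposure lasted 48 hours, with cells grown in 96-well plates and compounds tested at five concentrations. GI50: concentration for 50% inhibition of growth. The concentration for full growth arrest is given as TGI.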

Legend:
Assay in all cases: inhibition of tumour cell growth, NCI panel, 48 h
SK-MEL-2 melanoma = test system: SK-MEL-2 melanoma
SK-OV-3 ovarian = test system: SK-OV-3 ovarian
HOP-18 NSCLC = test system: HOP-18 NSCLC
SF-295 CNS = test system: SF-295 CNS
DMS 114 small cell lung = test system: DMS 114 small cell lung
NCI-H522 lung = test system: NCI-H522 lung
M19-MEL melanoma = test system: M19-MEL melanoma
SNB-78 CNS = test system: SNB-78 CNS
LOX IMVI melanoma = test system: LOX IMVI melanoma
NCI-H226 lung = test system: NCI-H226 lung
LXFL 529 NSCLC = test system: LXFL 529 NSCLC
DLD-1 colon = test system: DLD-1 colon

SMILES | TGI (SK-MEL-2 melanoma) | TGI (SK-OV-3 ovarian) | TGI (HOP-18 NSCLC) | TGI (SF-295 CNS) | TGI (DMS 114 small cell lung) | TGI (NCI-H522 lung) | TGI (M19-MEL melanoma) | TGI (SNB-78 CNS) | TGI (LOX IMVI melanoma) | TGI (NCI-H226 lung) | TGI (LXFL 529 NSCLC) | GI50 (SK-MEL-2 melanoma) | GI50 (DMS 114 small cell lung) | GI50 (M19-MEL melanoma) | TGI (DLD-1 colon)
CCCCc1c2c(nc3c1CCCC3O)/C(=C/c1ccccc1)CCC2 (stereo unspecified) | 51.7 µM | > 100 µM | 89.5 µM | > 100 µM | 53.1 µM | 52.5 µM | 57.1 µM | > 100 µM | 34.5 µM | 68 µM | > 100 µM |  |  |  | 
O=C1C(CN2CCCCC2)CCCC1CN1CCCCC1 (stereo unspecified) | > 100 µM and 48.4 µM | > 100 µM | 28.5 µM and 30.9 µM | > 100 µM | 18.7 µM and 79.4 µM |  | > 57.1 µM and 36.7 µM | 47.6 µM and 44.8 µM | > 57.2 µM | > 100 µM | 29.3 µM and 28.9 µM | > 83.2 µM and 31.9 µM | 7.38 µM and 27.4 µM | > 43 µM and 19.8 µM | 31.5 µM and 32 µM
COC(OC)c1cccc2c1C(=O)CCC1(O)c3ccccc3C1C2 (stereo unspecified) | > 100 µM | > 100 µM | > 100 µM | > 100 µM | > 100 µM | > 100 µM | > 100 µM | > 100 µM | > 100 µM | > 100 µM | > 100 µM |  |  |  | > 100 µM
COc1ccc(C2C3C(=O)C=CC(=O)C3[C@@H]2C)cc1OC (stereo partly specified) | > 100 µM | > 100 µM | > 100 µM | > 100 µM | > 100 µM | 33.4 µM | > 100 µM | > 100 µM | > 100 µM | > 100 µM | > 100 µM |  |  |  | > 100 µM
CC(C)(C)c1nc2c(o1)C(=O)c1ccccc1C2=O | 1.83 µM | 10.2 µM | 18.9 µM | 4.25 µM | 5.89 µM | 3.85 µM | 2.84 µM | 39.1 µM | 1.94 µM | 6.36 µM | 18.1 µM |  |  |  | 14.5 µM
